One test deals with rat islets. The experiment in a line: in vitro insulinotropic test using rat islets. Particulars: dose 162(1 mM) micrograms; mean ± SEM. It counts as cell-based. From the text: In an in vitro test using rat islets, the insulinotropic ability of ADM01 was investigated against standard (tolbutamide) and placebo control.
For test [1], the system named is experimental diabetic rats (Streptozotocin-Nicotinamide model). The experiment in a line: 30-days study in Streptozotocin-Nicotinamide experimental diabetic rats. The class given is in vivo, rat. Particulars: after 10, 20 and 30 days of treatment vs base line (0 day); P<0.05. Here is the method: In another study the effect of ADM01 on blood glucose levels in experimental diabetic rats, using the Streptozotocin-Nicotinamide model, was investigated. After confirming the stabilization of diabetes mellitus in the experimental animals a single dose study was carried out in which the effect of a single dose administration of different dosages of ADM01 on blood glucose levels was investigated against vehicle control.
After the single dose study, a 30-days study was carried out in which the effect of daily administration of ADM01 on blood glucose levels was investigated. The effect of doses of 200, 400 and 800 mg/kg body weight respectively were investigated.

Test [2] concerns streptozotocin induced type I diabetes rats. The test can be described thus: Streptozotocin induced type I diabetes model. It counts as in vivo, rat. The settings on record: insulin 2.5, single dose, at 2 hrs. How it is done: In another study streptozotocin was administered to the test animals, causing the destruction of the beta cells of pancreas. In rats a dose of STZ of 60 mg/kg ip causes stable hyperglycemia by day 7 post administration. Generally, this model mimics type I Diabetes Mellitus. Groups were treated for 15 days with ADM01, ADM01+insulin and insulin.
In the same study the effects of a single dose administration on fasting glucose levels was studied.

On to `CCCCNC(=O)NS(=O)(=O)c1ccc(C)cc1` [Tolbutamide], for which, in the test with rat islets, the “Amount of insulin during stimulated insulin release (glucose, 16 mM)” value is listed as 239.48 ± 11.43 picomoles/L and the “Amount of insulin release at basal glucose levels (2 mM)” value is 107.08 ± 15.35 picomoles/L. In test [1], the “serum blood glucose levels” value is reported as “significantly decreased” and the serum insulin levels result is reported as “significantly increased”.

insulin: the “fall of FPG-levels” value in test [2] stood at 23.3%.

Source of the values: patent US20100173022A1, “COMPOSITION FOR THE TREATMENT OF DIABETES MELLITUS AND METABOLIC SYNDROME” (priority 2007, published 2010).
